The values that follow come from ChEMBL document CHEMBL5696442, “Discovery of type II inhibitors of TGFβ-activated kinase 1 (TAK1) and mitogen-activated protein kinase kinase kinase kinase 2 (MAP4K2)” (J Med Chem, 2015).

Assay [1] addresses Citron Rho-interacting kinase (Homo sapiens) (UniProt O14578). In words: Inhibition of CIT (unknown origin) at 1 uM by Ambit Kinomescan binding assay relative to control.
In assay [2] the target is T1, Phosphatidylinositol 5-phosphate 4-kinase type-2 gamma (Homo sapiens) (UniProt Q8TBX8).
T1 sequence (whole entry): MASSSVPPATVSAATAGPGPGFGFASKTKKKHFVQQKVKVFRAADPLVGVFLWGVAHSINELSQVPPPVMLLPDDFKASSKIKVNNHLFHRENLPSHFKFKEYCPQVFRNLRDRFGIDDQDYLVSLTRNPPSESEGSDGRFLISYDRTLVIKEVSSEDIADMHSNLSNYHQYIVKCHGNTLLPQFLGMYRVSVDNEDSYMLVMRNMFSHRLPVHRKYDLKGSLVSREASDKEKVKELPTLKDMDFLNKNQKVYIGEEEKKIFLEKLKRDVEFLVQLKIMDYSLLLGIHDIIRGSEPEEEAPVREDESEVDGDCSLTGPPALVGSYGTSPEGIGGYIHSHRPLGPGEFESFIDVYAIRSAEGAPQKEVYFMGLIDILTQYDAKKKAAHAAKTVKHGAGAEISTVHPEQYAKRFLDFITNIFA
Nature of the assay: Inhibition of PIP5K2C (unknown origin) at 1 uM by Ambit Kinomescan binding assay relative to control; values are per cent of control.

The target of assay [3] is Tyrosine-protein kinase JAK3 (Homo sapiens) (UniProt P52333). In words: Inhibition of JAK3 JH1 catalytic domain (unknown origin) at 1 uM by Ambit Kinomescan binding assay relative to control.
Assay [4] has as its target T2, Ephrin type-B receptor 4 (Homo sapiens) (UniProt P54760).
T2 sequence (whole entry): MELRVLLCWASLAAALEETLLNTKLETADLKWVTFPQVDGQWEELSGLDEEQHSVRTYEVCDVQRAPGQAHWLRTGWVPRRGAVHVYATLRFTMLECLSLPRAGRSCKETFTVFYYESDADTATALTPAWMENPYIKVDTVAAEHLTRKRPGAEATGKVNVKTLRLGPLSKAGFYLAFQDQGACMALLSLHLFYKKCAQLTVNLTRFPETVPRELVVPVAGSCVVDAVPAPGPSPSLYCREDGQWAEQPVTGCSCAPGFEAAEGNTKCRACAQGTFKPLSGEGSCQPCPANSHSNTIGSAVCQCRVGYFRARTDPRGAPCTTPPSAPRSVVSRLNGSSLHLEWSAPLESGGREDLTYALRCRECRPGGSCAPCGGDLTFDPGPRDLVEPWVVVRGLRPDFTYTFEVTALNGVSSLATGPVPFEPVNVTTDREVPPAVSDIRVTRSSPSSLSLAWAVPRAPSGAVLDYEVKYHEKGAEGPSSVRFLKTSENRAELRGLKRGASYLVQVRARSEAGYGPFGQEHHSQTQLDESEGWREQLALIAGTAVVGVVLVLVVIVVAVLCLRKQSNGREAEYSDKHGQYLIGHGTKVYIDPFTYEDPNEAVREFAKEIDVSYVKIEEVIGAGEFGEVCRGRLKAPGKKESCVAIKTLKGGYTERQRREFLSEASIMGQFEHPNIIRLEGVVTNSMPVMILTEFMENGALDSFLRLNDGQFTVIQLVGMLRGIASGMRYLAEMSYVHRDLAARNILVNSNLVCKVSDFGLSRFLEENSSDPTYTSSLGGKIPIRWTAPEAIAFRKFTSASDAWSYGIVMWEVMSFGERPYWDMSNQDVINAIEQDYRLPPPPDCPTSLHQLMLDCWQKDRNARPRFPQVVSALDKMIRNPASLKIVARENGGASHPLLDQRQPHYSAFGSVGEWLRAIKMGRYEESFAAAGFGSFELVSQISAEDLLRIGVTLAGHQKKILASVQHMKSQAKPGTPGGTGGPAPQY
In words: Inhibition of EPHB4 (unknown origin) at 1 uM by Ambit Kinomescan binding assay relative to control.

For assay [5], the target named is T3, Mitogen-activated protein kinase kinase kinase kinase 2 (Homo sapiens) (UniProt Q12851).
T3 sequence (whole entry): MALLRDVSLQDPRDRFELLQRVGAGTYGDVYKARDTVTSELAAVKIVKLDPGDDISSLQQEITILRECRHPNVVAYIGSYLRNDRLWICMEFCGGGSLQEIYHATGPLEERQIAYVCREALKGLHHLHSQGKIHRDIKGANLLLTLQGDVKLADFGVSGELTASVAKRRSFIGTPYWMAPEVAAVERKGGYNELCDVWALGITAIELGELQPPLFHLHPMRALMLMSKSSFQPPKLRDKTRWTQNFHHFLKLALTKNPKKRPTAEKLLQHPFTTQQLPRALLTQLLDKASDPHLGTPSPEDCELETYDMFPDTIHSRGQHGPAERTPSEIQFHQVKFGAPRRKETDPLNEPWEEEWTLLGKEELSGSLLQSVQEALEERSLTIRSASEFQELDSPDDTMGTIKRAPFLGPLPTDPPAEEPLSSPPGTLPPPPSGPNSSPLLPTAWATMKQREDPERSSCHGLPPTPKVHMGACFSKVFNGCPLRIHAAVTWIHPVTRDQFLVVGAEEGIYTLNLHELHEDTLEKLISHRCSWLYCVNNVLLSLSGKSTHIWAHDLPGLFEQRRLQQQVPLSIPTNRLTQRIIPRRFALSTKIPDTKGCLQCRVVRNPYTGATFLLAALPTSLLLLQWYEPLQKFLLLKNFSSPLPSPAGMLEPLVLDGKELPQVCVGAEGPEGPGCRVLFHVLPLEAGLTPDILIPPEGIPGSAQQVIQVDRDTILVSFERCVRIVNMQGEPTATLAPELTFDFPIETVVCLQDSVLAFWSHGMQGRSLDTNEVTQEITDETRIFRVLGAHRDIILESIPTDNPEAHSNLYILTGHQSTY
In words: Inhibition of MAP4K2 (unknown origin) at 1 uM by Ambit Kinomescan binding assay relative to control; values are per cent of control.

For assay [6], the target named is Serine/threonine-protein kinase Aurora (Homo sapiens) (UniProt Q96GD4+Q9UQB9+O14965). In words: Inhibition of AurA/B/C ATP labeling site in human Huh-7 cells at 10 uM by KiNativ Profiling analysis relative to control. The class given is cell-based.
In assay [7] the target is Tyrosine-protein kinase ABL2 (Homo sapiens, UniProt P42684). Nature of the assay: Inhibition of ARG ACT labeling site in human A-375 cells at 0.05 uM by KiNativ Profiling analysis relative to control. The class given is cell-based.
Assay [8] deals with Dual specificity mitogen-activated protein kinase kinase 1 (Homo sapiens) (UniProt Q02750). In words: Inhibition of MAP2K1 Lys1 labeling site in human A-375 cells at 0.05 uM by KiNativ Profiling analysis relative to control. The class given is cell-based.
The next assay deals with Ephrin type-A receptor 2 (Homo sapiens, UniProt P29317). Nature of the assay: Inhibition of EphA2 ACT labeling site in human A-375 cells at 5 uM by KiNativ Profiling analysis relative to control. The class given is cell-based.
In assay [9] the target is Cyclin-dependent kinase 8 (Homo sapiens) (UniProt P49336). In words: Inhibition of CDK8 Lys2 labeling site in human Huh-7 cells at 1 uM by KiNativ Profiling analysis relative to control. Type of assay: cell-based.
Cyclin-dependent kinase 8 (Homo sapiens), sequence (P49336 whole entry): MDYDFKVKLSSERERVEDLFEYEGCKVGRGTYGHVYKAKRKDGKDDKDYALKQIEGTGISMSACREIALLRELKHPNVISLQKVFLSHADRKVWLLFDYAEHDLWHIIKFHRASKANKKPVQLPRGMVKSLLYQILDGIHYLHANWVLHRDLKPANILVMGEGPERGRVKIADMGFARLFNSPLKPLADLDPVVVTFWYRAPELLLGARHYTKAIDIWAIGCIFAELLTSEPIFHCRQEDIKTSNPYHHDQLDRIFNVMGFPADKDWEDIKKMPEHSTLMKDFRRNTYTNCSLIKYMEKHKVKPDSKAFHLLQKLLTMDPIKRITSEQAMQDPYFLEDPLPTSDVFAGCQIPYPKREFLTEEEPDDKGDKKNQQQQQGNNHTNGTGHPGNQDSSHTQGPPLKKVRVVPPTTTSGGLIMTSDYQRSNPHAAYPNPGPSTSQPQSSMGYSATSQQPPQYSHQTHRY

Ephrin type-A receptor 2, sequence (P29317 whole entry): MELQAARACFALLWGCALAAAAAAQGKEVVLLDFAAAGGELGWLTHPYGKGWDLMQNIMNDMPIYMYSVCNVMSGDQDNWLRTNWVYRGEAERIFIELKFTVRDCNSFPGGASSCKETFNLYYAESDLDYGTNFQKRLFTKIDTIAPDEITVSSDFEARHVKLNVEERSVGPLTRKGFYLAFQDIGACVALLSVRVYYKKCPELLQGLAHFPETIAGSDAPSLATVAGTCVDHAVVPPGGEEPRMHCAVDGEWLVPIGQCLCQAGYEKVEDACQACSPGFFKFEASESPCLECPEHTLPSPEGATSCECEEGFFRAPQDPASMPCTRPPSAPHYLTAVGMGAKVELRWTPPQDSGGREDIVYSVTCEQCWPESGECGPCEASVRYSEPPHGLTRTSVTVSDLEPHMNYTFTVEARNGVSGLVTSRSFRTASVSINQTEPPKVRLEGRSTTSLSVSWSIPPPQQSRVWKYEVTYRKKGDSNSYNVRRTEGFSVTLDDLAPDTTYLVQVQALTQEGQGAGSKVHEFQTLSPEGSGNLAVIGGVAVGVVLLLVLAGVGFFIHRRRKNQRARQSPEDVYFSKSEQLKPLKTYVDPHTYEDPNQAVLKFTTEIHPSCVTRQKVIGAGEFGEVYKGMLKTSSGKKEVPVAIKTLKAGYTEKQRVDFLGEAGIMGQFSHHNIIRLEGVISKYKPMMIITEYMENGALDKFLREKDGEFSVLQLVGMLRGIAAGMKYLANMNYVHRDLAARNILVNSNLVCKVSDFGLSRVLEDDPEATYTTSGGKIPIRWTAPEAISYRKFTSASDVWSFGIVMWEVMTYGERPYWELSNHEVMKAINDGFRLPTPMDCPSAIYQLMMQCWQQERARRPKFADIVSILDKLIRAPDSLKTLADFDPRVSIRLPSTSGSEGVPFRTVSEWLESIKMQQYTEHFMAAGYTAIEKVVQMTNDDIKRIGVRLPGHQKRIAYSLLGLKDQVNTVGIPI
Tyrosine-protein kinase JAK3 (Homo sapiens), sequence (P52333 whole entry, the tested form may be a part): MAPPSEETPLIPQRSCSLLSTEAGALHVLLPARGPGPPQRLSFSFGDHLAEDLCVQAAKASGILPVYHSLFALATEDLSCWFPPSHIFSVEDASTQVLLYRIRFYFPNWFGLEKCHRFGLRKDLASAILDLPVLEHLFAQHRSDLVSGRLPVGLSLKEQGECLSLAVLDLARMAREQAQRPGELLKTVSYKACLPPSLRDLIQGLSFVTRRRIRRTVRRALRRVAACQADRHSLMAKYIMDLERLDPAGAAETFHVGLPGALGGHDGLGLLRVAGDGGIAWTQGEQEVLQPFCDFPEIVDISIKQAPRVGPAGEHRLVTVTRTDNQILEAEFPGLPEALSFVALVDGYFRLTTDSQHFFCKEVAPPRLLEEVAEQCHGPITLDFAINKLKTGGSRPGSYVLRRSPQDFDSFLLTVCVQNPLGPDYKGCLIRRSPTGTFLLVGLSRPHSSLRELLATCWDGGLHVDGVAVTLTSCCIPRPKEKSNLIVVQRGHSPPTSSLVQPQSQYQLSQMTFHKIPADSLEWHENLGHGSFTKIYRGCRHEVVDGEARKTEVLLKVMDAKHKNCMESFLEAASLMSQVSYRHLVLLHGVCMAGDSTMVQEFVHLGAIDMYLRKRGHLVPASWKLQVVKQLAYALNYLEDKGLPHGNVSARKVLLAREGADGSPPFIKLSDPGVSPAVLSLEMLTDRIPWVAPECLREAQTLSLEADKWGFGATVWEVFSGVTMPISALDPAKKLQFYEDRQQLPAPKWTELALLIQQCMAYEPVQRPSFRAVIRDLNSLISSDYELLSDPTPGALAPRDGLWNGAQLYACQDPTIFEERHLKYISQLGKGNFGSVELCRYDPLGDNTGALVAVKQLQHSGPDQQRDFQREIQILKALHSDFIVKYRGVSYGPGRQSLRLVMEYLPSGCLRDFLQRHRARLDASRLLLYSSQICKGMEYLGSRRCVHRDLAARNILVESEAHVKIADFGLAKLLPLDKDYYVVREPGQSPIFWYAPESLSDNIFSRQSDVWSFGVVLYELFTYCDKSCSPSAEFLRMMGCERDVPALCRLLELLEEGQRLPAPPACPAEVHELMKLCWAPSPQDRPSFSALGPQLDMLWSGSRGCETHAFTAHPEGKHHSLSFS
Tyrosine-protein kinase ABL2, sequence (P42684 whole entry): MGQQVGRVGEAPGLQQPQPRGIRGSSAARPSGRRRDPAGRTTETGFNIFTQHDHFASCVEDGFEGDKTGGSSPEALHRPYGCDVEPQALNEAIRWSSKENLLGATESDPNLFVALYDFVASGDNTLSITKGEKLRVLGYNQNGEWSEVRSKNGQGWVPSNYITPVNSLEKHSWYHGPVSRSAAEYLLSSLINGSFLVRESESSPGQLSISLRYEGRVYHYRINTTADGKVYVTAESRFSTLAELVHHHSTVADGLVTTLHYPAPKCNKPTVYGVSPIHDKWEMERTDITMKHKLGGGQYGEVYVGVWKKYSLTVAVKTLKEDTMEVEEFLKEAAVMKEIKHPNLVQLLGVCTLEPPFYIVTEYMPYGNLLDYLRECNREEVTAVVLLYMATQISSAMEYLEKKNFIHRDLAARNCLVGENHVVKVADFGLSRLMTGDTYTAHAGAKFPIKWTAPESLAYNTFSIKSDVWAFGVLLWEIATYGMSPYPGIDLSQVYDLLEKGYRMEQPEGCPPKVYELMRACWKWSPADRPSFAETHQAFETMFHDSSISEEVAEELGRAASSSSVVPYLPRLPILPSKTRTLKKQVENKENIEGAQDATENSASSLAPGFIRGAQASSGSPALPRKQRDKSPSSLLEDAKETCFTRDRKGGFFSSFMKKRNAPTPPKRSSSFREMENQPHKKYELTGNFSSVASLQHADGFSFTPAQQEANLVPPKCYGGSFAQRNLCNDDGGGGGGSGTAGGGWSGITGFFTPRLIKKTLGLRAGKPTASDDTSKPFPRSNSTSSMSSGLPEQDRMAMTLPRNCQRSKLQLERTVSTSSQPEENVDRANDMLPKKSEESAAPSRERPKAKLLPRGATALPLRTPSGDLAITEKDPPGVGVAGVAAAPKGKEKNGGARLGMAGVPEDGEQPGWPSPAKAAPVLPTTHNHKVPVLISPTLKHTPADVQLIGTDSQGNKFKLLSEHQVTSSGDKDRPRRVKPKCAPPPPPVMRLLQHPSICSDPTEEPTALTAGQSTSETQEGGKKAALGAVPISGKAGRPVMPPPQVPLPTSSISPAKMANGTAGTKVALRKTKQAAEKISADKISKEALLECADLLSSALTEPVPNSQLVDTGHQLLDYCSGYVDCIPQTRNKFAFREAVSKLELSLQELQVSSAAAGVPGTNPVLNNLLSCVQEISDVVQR
Dual specificity mitogen-activated protein kinase kinase 1 (Homo sapiens), sequence (Q02750 whole entry): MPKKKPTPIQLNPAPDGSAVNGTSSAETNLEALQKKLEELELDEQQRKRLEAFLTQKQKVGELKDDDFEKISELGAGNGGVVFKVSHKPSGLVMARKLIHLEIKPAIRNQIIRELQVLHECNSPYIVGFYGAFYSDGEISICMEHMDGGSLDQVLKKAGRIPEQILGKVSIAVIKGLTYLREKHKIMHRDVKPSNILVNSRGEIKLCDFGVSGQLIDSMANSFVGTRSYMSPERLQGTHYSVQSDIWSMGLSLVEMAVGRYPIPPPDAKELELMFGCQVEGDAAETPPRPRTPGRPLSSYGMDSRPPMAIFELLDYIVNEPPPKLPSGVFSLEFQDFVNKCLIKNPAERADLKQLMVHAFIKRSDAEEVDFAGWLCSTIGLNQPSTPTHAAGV

As usually defined, the inhibition is how much of the control response was suppressed. A higher inhibition goes with a response far below the control. By residual activity is commonly meant the share of the control activity or signal that is left under treatment. Lower therefore signals little activity left. `CCN1CCN(Cc2ccc(NC(=O)c3ccc(C)c(/C=C/c4cnc5[nH]ccc5c4OC)c3)cc2C(F)(F)F)CC1`: the inhibition in assay [1] is 4.6%; in assay [3], 55%; in assay [4] it was 21%. In addition, the residual activity in assay [2] amounted to 100%. The molecule further showed a percent of control in assay [5] of 3.2%.

Regarding `CCN1CCN(Cc2ccc(NC(=O)c3ccc(C)c(Oc4ccnc5[nH]ccc45)c3)cc2C(F)(F)F)CC1`, the inhibition in [6] is 4.1%; in assay [7] it was 88.5%; in assay [8], 2.9%; at Ephrin type-A receptor 2, 57.7%.

In the case of `CNc1cc(Oc2cc(C(=O)Nc3cc(N4CCN(C)CC4)cc(C(F)(F)F)c3)ccc2C)ncn1`, the inhibition in assay [9] came out at 25.8%.
